Assay results from PubChem BioAssay AID206 (DTP/NCI, 2004).
“And” between values parts separate entries of the source, which are not always exact repeats. Equal entries are not always repeated. Results filed as inconclusive are left out.

System: nude mice, HT29 intrarenal xenograft, tumor weight T/C
Assay: NCI In Vivo Anticancer Drug Screen. Data for tumor model HT29;CX-1 Human Adenocarcinoma (MER+) (intrarenal inoculation) in NU/NU Swiss (nude) mice
Conditions: endpoint: mean tumor weight change, higher = larger tumour
Procedure, shortened: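 T/C = treated-group value ÷ vehicle-group value, using tumor size or survival.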

[1] = dose: 200.0 mg/kg/injection, schedule: Q04DX004 (sc), vehicle: saline with Tween-80
[2] = dose: 400.0 mg/kg/injection, schedule: Q04DX004 (sc), vehicle: saline with Tween-80
[3] = dose: 100.0 mg/kg/injection, schedule: Q04DX004 (sc), vehicle: saline with Tween-80
[4] = dose: 1200.0 mg/kg/injection, schedule: Q04DX004 (sc), vehicle: saline with Tween-80
[5] = dose: 2400.0 mg/kg/injection, schedule: Q04DX004 (sc), vehicle: saline with Tween-80

O=C1C(NCCO)=C(N2CC2)C(=O)C(NCCO)=C1N1CC1
T/C (dose: 0.5 mg/kg/injection, schedule: Q04DX004 (sc), vehicle: saline): 76 % of control | T/C (dose: 1.0 mg/kg/injection, schedule: Q04DX004 (sc), vehicle: saline): 12 % of control | T/C (dose: 1.5 mg/kg/injection, schedule: Q04DX004 (sc), vehicle: saline): 86 % of control | T/C (dose: 2.0 mg/kg/injection, schedule: Q04DX004 (sc), vehicle: saline): 21 % of control | T/C (dose: 3.0 mg/kg/injection, schedule: Q04DX004 (sc), vehicle: saline): 82 % of control

COC(=O)Nc1ccc(Cc2ccc(NC(=O)OC)cc2)cc1
T/C (dose: 100.0 mg/kg/injection, schedule: Q01DX010 (sc), vehicle: saline with Tween-80): 26 % of control | T/C (dose: 200.0 mg/kg/injection, schedule: Q01DX010 (sc), vehicle: saline with Tween-80): 100 % of control | T/C (dose: 400.0 mg/kg/injection, schedule: Q01DX010 (sc), vehicle: saline with Tween-80): 152 % of control | T/C (dose: 800.0 mg/kg/injection, schedule: Q01DX010 (sc), vehicle: saline with Tween-80): 58 % of control

CCCCCn1c(C)cc(/C=C\c2ccc3cc(C)ccc3[n+]2C)c1C
T/C (dose: 1.0 mg/kg/injection, schedule: Q01DX010 (sc), vehicle: Klucel (hydroxypropylcellulose) (HPC)): 89 % of control | T/C (dose: 2.0 mg/kg/injection, schedule: Q01DX010 (sc), vehicle: Klucel (hydroxypropylcellulose) (HPC)): 182 % of control | T/C (dose: 4.0 mg/kg/injection, schedule: Q01DX010 (sc), vehicle: Klucel (hydroxypropylcellulose) (HPC)): 89 % of control

C/C(=N\NC(N)=O)c1cccc(/C(C)=N/NC(N)=O)n1
T/C [1]: 106 % of control | T/C [2]: 108 % of control

C1CCC2C[N-]CCC2C1.C1CCC2C[N-]CCC2C1.C1CCC2C[N-]CCC2C1.C1CCC2C[N-]CCC2C1.[Cl][Rh][Cl] (configuration not stated)
T/C (dose: 9.0 mg/kg/injection, schedule: Q04DX004 (sc), vehicle: saline with Tween-80): 96 % of control | T/C (dose: 18.0 mg/kg/injection, schedule: Q04DX004 (sc), vehicle: saline with Tween-80): 82 % of control | T/C (dose: 36.0 mg/kg/injection, schedule: Q04DX004 (sc), vehicle: saline with Tween-80): 84 % of control | T/C (dose: 72.0 mg/kg/injection, schedule: Q04DX004 (sc), vehicle: saline with Tween-80): 73 % of control

COC1=C(OC)C(=O)C(SC/C=C(\C)CCCC(C)CCCC(C)CCCC(C)C)=CC1=O (configuration not stated)
T/C [3]: 11 % of control | T/C [1]: 36 % of control | T/C (dose: 300.0 mg/kg/injection, schedule: Q04DX004 (sc), vehicle: saline with Tween-80): 59 % of control | T/C [2]: 18 % of control | T/C (dose: 600.0 mg/kg/injection, schedule: Q04DX004 (sc), vehicle: saline with Tween-80): 26 % of control | T/C (dose: 800.0 mg/kg/injection, schedule: Q04DX004 (sc), vehicle: saline with Tween-80): 12 % of control | T/C [4]: 39 % of control | T/C [5]: 55 % of control

COc1cc2cc(c1Cl)N(C)C(=O)C[C@H](OC(=O)[C@H](C)N(C)C(C)=O)[C@]1(C)O[C@H]1[C@H](C)[C@@H]1C[C@@](O)(NC(=O)O1)[C@H](OC)C=C/C=C(\C)C2
T/C (dose: 50.0 micrograms/kg/injection, schedule: Q01DX010 (sc), vehicle: Klucel (hydroxypropylcellulose) (HPC)): 40 % of control | T/C (dose: 100.0 micrograms/kg/injection, schedule: Q01DX010 (sc), vehicle: Klucel (hydroxypropylcellulose) (HPC)): 93 % of control | T/C (dose: 200.0 micrograms/kg/injection, schedule: Q01DX010 (sc), vehicle: Klucel (hydroxypropylcellulose) (HPC)): 24 % of control

CC(=O)OC1C(O)C(C)OC(OC2C(OC(=O)C3CCC4C(C3)OC3(CC(OC(=O)/C=C/c5ccccc5)C(C)CO3)C43CO3)OC(C)C(O)C2OC(C)=O)C1O (configuration not stated)
T/C (dose: 15.0 mg/kg/injection, schedule: Q04DX004 (sc), vehicle: distilled water + Tween-80): 100 % of control | T/C (dose: 30.0 mg/kg/injection, schedule: Q04DX004 (sc), vehicle: distilled water + Tween-80): 62 % of control | T/C (dose: 60.0 mg/kg/injection, schedule: Q04DX004 (sc), vehicle: distilled water + Tween-80): 61 % of control | T/C (dose: 120.0 mg/kg/injection, schedule: Q04DX004 (sc), vehicle: distilled water + Tween-80): 91 % of control

O=c1[nH]c(=O)n(C2CC(O)C(CO)O2)cc1C(F)(F)F (configuration not stated)
T/C (dose: 100.0 mg/kg/injection, schedule: Q01DX010 (sc), vehicle: saline): 202 % of control | T/C (dose: 200.0 mg/kg/injection, schedule: Q01DX010 (sc), vehicle: saline): 104 % of control | T/C (dose: 400.0 mg/kg/injection, schedule: Q01DX010 (sc), vehicle: saline): 73 % of control

CSc1cc(C)[o+]c(C)c1
T/C (dose: 50.0 mg/kg/injection, schedule: Q04DX004 (sc), vehicle: Klucel (hydroxypropylcellulose) (HPC)): 107 % of control | T/C (dose: 100.0 mg/kg/injection, schedule: Q04DX004 (sc), vehicle: Klucel (hydroxypropylcellulose) (HPC)): 57 % of control | T/C (dose: 200.0 mg/kg/injection, schedule: Q04DX004 (sc), vehicle: Klucel (hydroxypropylcellulose) (HPC)): 41 % of control

COC(=O)C12OCC34C(CC5C(C)C6=CC(=O)OC6=CC5(C)C3C(O)C1O)OC(=O)C(OC(C)=O)C24 (configuration not stated)
T/C (dose: 1.25 mg/kg/injection, schedule: Q04DX004 (sc), vehicle: saline + alcohol): 115 % of control | T/C (dose: 5.0 mg/kg/injection, schedule: Q04DX004 (sc), vehicle: saline + alcohol): 171 % of control | T/C (dose: 10.0 mg/kg/injection, schedule: Q04DX004 (sc), vehicle: saline + alcohol): 165 % of control

CCC12C[N+]3([O-])CCc4c([nH]c5ccccc45)C(C(=O)OC)(c4cc5c(cc4OC)N(C)C4C(O)(C(=O)OC)C(OC(C)=O)C6(CC)C=CCN7CCC54C76)CC(C3)C1O2 (configuration not stated)
T/C (dose: 20.0 mg/kg/injection, schedule: Q04DX004 (sc), vehicle: water): 81 % of control | T/C (dose: 40.0 mg/kg/injection, schedule: Q04DX004 (sc), vehicle: water): 60 % of control | T/C (dose: 80.0 mg/kg/injection, schedule: Q04DX004 (sc), vehicle: water): 85 % of control | T/C (dose: 160.0 mg/kg/injection, schedule: Q04DX004 (sc), vehicle: water): 71 % of control

CN(C)c1ccc2c(N(C)C)cc(N(C)C)nc2c1
T/C (dose: 75.0 mg/kg/injection, schedule: Q04DX004 (sc), vehicle: Klucel (hydroxypropylcellulose) (HPC)): 97 % of control

COC1=NCN=C2SC=C(N)N=C12
T/C (dose: 37.5 mg/kg/injection, schedule: Q04DX004 (sc), vehicle: saline): 86 % of control | T/C (dose: 75.0 mg/kg/injection, schedule: Q04DX004 (sc), vehicle: saline): 70 % of control | T/C (dose: 150.0 mg/kg/injection, schedule: Q04DX004 (sc), vehicle: saline): 73 % of control

CO[C@H]1Nc2c(ccc(C)c2O)C(=O)N2C=C(/C=C/C(N)=O)C[C@@H]12
T/C (dose: 0.5 mg/kg/injection, schedule: Q04DX004 (sc), vehicle: saline + alcohol): 98 % of control | T/C (dose: 1.0 mg/kg/injection, schedule: Q04DX004 (sc), vehicle: saline + alcohol): 54 % of control

CCOC(=O)NC1=C(N2CC2)C(=O)C(NC(=O)OCC)=C(N2CC2)C1=O
T/C (dose: 3.13 mg/kg/injection, schedule: Q04DX004 (sc), vehicle: suspension in saline): 55 % of control

C[Si](C)(C)O/C=C1\CCCCC1=O
T/C (dose: 50.0 mg/kg/injection, schedule: Q04DX004 (sc), vehicle: saline with Tween-80): 163 % of control | T/C [3]: 92 % of control | T/C [1]: 123 % of control | T/C [2]: 65 % of control

C=C(C(=O)O)C(N)C(=O)O (configuration not stated)
T/C (dose: 225.0 mg/kg/injection, schedule: Q04DX004 (sc), vehicle: suspension in saline): 114 % of control | T/C (dose: 450.0 mg/kg/injection, schedule: Q04DX004 (sc), vehicle: suspension in saline): 64 % of control | T/C (dose: 900.0 mg/kg/injection, schedule: Q04DX004 (sc), vehicle: suspension in saline): 109 % of control

CCCCCC1c2cc(O)ccc2OC1N1CCOCC1 (configuration not stated)
T/C (dose: 75.0 mg/kg/injection, schedule: Q04DX004 (sc), vehicle: saline with Tween-80): 29 % of control | T/C (dose: 150.0 mg/kg/injection, schedule: Q04DX004 (sc), vehicle: saline with Tween-80): 34 % of control | T/C [4]: 57 % of control | T/C [5]: 15 % of control

O=C1C(=O)c2ccccc2C(O)=C1CC=C(Cl)Cl
T/C (dose: 100.0 mg/kg/injection, schedule: Q01DX010 (sc), vehicle: water): 183 % of control | T/C (dose: 400.0 mg/kg/injection, schedule: Q01DX010 (sc), vehicle: water): 74 % of control and 213 % of control

O=C1C=C(C2OC(CO)C(O)C2O)C(=O)N1 (configuration not stated)
T/C (dose: 6.25 mg/kg/injection, schedule: Q01DX010 (sc), vehicle: saline): 78 % of control | T/C (dose: 12.5 mg/kg/injection, schedule: Q01DX010 (sc), vehicle: saline): 78 % of control

Cc1cn(C2CC(O)C(CO)O2)c(=O)[nH]c1=O (configuration not stated)
T/C (dose: 400.0 mg/kg/injection, schedule: Q04DX004 (sc), vehicle: saline): 113 % of control | T/C (dose: 800.0 mg/kg/injection, schedule: Q04DX004 (sc), vehicle: saline): 94 % of control | T/C (dose: 1600.0 mg/kg/injection, schedule: Q04DX004 (sc), vehicle: saline): 102 % of control | T/C (dose: 3200.0 mg/kg/injection, schedule: Q04DX004 (sc), vehicle: saline): 81 % of control
